Data from patent EP0510260A2, “6'-C-alkyl-3-deazaneplanocin A derivative and its preparation process and use” (ASAHI KASEI KOGYO KABUSHIKI KAISHA, priority 1991, dated 1992).

Tests used:
virus = test: Antiviral activity: cytopathic effect (CPE) inhibition in virus-inoculated Vero cells; format: cell-based; settings: MIC, virus at 100 times TCID50, cultured 36 hours at 37°C, CPE observed microscopically
Protocol: By partly modifying the testing method reported in Antimicrobial Agents and Chemotherapy, 24(3), 353-361 (1983), antiviral activity was analyzed in the following manner. 200 µℓ of Eagle's minimum essential medium (with 10% fetal calf serum), in which Vero cells (product of Flow General Inc., marketed by Dainippon Pharmaceutical Co., Ltd., available from National Institute of Health) were suspended at the concentration of 3 x 10⁵ cells/mℓ, were cultured in a […] flat bottom plate. Subsequent to dense monolayer culture, the medium was removed and 90 µℓ of Eagle's minimum essential medium (with 3% fetal calf serum) containing a test compound were added. The tissue culture infections dosis 50% (TCID₅₀) had been determined in advance without addition of any drug. The above-prepared culture plate was inoculated with 10 µℓ of a virus solution whose concentration was 100 times higher than TCID₅₀ determined in advance. The cells were cultured for 36 hours at 37°C under 5% CO₂. The cytopathic effect (CPE) was microscopically observed, whereby the minimum virus growth inhibitory concentration (MIC) was determined.

Vero cells = test: Measurement of cytotoxicity by the MTT method; format: cell-based; settings: cultured 72 hours, ID50 (growth of cells inhibited to 50%)
Protocol: Added to 100 µℓ of Eagle's minimum essential medium were 100 µℓ of Eagle's minimum essential medium (with 10% fetal calf serum), in which Vero cells were suspended at the concentration of 5 x 10⁴ cells/mℓ as well as a test compound. The resultant mixture was cultured for 72 hours in a […] flat bottom plate. The cytotoxicity of the test compound was then measured by the MTT measuring method reported in J. Immunol. Methods, 65, 55-63 (1983). The cytotoxicity is indicated in terms of the concentration (ID₅₀) which inhibited the growth of cells to 50%.

CC(O)C1=C[C@@H](n2cnc3c(N)nccc32)[C@H](O)[C@@H]1O (single isomer, unassigned) [6'-c-Methyl-3-deazaneplanocin A, 6'-C-Methyl-3-deazaneplanocin A]
Minimum virus growth inhibitory concen. (virus): 1.0 µg/mL | 50% cell growth inhibitory concentration (ID50) (Vero cells): 12.4 µg/mL

Nc1nccc2c1ncn2[C@@H]1C=C(CO)[C@@H](O)[C@H]1O [3-Deazaneplanosin A, 3-deazaneplanocin A]
Minimum virus growth inhibitory concen. (virus): 0.24 µg/mL

Nc1ncnc2c1ncn2[C@@H]1C=C(CO)[C@@H](O)[C@H]1O [Neplanocin A]
Minimum virus growth inhibitory concen. (virus): 0.24 µg/mL
